According to patent US20230159496A1, “COMPOUNDS AND METHODS FOR MODULATING SPLICING” (REMIX THERAPEUTICS INC., priority 2020, published 2023):
Where two headings read alike, the source gives them in different places.

How the values were obtained:
Type in all cases: cell-based
Target C CJ mRNA = experiment: Gene panel canonical junction qPCR assay, Target C; details: decrease in CJ mRNA levels, gene panel; read-out: Target C IC50
Method: (§1) The expression of a target mRNA was measured by detecting the formation of an exon-exon junction in the canonical transcript (CJ). A compound mediated exon-inclusion event was detected by observing an increase in formation of a new junction with an alternative exon (AJ). Real-time qPCR assays were used to detect these splicing switches and interrogate the potency of various compounds towards different target genes. A high-throughput real time quantitative PCR (RT-qPCR) assay was developed to measure these two isoforms of the mRNA (CJ and AJ) for an exemplary gene, HTT, together with a control housekeeping gene, GAPDH or GUSB or PPIA, used for normalization. Briefly, the A673 or K562 cell line was treated with various compounds described herein (e.g., compounds of Formula (I)). After treatment, the levels of the HTT mRNA targets were determined from each sample of cell lysate by cDNA synthesis followed by qPCR. The A673 cell line was cultured in DMEM with 10% FBS. Cells were diluted with full growth media and plated in a 96-well plate (15,000 cells in 100 ul media per well). The plate was incubated at 37° C. with 5% CO2 for 24 hours to allow cells to adhere. An 11-point 3-fold serial dilution of the compounds was made in DMSO then diluted in media in an intermediate plate. Compounds were transferred from the intermediate plate to the cell plate with the top dose at a final concentration of 10 uM in the well. Final DMSO concentration was kept at or below 0.25%. The cell plate was returned to the incubator at 37° C. with 5% CO2 for an additional 24 hours. The K562 cell line was cultured in IMDM with 10% FBS. For K562, cells were diluted with full growth media and plated in either a 96-well plate (50,000 cells in 50 uL media per well) or a 384-well plate (8,000-40,000 cells in 45 uL media per well). An 11-point 3-fold serial dilution of the compounds were made in DMSO then diluted in media in an intermediate plate. Compound was transferred from the intermediate plate to the cell plate with the top dose at a final concentration of 10 uM in the well. Final DMSO concentration was kept at or below 0.25%. Final volume was 100 uL for 96-well plate and 50 uL for 384-well plate. The cell plate was then placed in an incubator at 37° C. with 5% CO2 for 24 hours. The cells were then gently washed with 50 uL-100 uL cold PBS before proceeding to addition of lysis buffer. 30 uL-50 uL of room temperature lysis buffer with DNAse I (and optionally RNAsin) was added to each well. Cells were shaken/mixed thoroughly at room temperature for 5-10 minutes for lysis to take place and then 3 uL-5 uL of room temperature stop solution was added and wells were shaken/mixed again. After 2-5 minutes, the cell lysate plate was transferred to ice for RT-qPCR reaction setup. The lysates could also be frozen at −80° C. for later use. In some cases, a direct lysis buffer was used. An appropriate volume of 3× lysis buffer (10 mM Tris, 150 mM NaCl, 1.5%-2.5% Igepal and 0.1-1 U/uL RNAsin, pH 7.4) was directly added to either K562 or A673 cells in media and mixed by pipetting 3 times. The plates were then incubated at room temperature with shaking/rocking for 20-50 minutes to allow for lysis to take place. After this time, the cell lysate plate was transferred to ice to set up for the RT-qPCR reactions. The lysates could also be frozen at −80° C. for later use. To set up 10 uL RT-qPCR reactions, cell lysates were transferred to 384-well qPCR plates containing the master mix according to the table below. The plates were sealed, gently vortexed, and spun down before the run. The volumes were adjusted accordingly in some instances where the reaction was carried in 20 uL. The table below summarizes the components of the RT-qPCR reactions: The RT-qPCR reaction was performed using a QuantStudio (ThermoFisher) under the following fast cycling conditions. All samples and standards were analyzed at least in duplicate.

HTT CJ mRNA = experiment: Gene panel canonical junction qPCR assay, HTT; details: decrease in CJ mRNA levels, gene panel; read-out: HTT IC50
Method: as §1

HTT mRNA = experiment: Splicing assay (RT-qPCR) monitoring HTT canonical junction (CJ) and alternative junction (AJ) mRNA isoforms; details: A673 or K562 cells, 24 h treatment, top dose 10 uM
Method: Compounds described herein were used to modulate RNA transcript abundance in cells. The expression of a target mRNA was measured by detecting the formation of an exon-exon junction in the canonical transcript (CJ). A compound mediated exon-inclusion event was detected by observing an increase in formation of a new junction with an alternative exon (AJ). Real-time qPCR assays were used to detect these splicing switches and interrogate the potency of various compounds towards different target genes. A high-throughput real time quantitative PCR (RT-qPCR) assay was developed to measure these two isoforms of the mRNA (CJ and AJ) for an exemplary gene, HTT, together with a control housekeeping gene, GAPDH or GUSB or PPIA, used for normalization. Briefly, the A673 or K562 cell line was treated with various compounds described herein (e.g., compounds of Formula (I)). After treatment, the levels of the HTT mRNA targets were determined from each sample of cell lysate by cDNA synthesis followed by qPCR.
• Cells-to-CT 1-step kit: ThermoFisher A25602, Cells-to-CT lysis reagent: ThermoFisher 4391851C, TaqMan™ Fast Virus 1-Step Master Mix: ThermoFisher 4444436 • GAPDH: VIC-PL, ThermoFisher 4326317E (Assay: Hs99999905_m1)—used for K562/suspension cell lines • GUSB: VIC-PL, ThermoFisher 4326320E (Assay: Hs99999908_m1)—used for K562/suspension cell lines • PPIA: VIC-PL, ThermoFisher 4326316E (Assay: Hs99999904_m1) — used for A673/adherent cell lines
The A673 cell line was cultured in DMEM with 10% FBS. Cells were diluted with full growth media and plated in a 96-well plate (15,000 cells in 100 ul media per well). The plate was incubated at 37° C. with 5% CO2 for 24 hours to allow cells to adhere. An 11-point 3-fold serial dilution of the compounds was made in DMSO then diluted in media in an intermediate plate. Compounds were transferred from the intermediate plate to the cell plate with the top dose at a final concentration of 10 uM in the well. Final DMSO concentration was kept at or below 0.25%. The cell plate was returned to the incubator at 37° C. with 5% CO2 for an additional 24 hours.
The K562 cell line was cultured in IMDM with 10% FBS. For K562, cells were diluted with full growth media and plated in either a 96-well plate (50,000 cells in 50 uL media per well) or a 384-well plate (8,000-40,000 cells in 45 uL media per well). An 11-point 3-fold serial dilution of the compounds were made in DMSO then diluted in media in an intermediate plate. Compound was transferred from the intermediate plate to the cell plate with the top dose at a final concentration of 10 uM in the well. Final DMSO concentration was kept at or below 0.25%. Final volume was 100 uL for 96-well plate and 50 uL for 384-well plate. The cell plate was then placed in an incubator at 37° C. with 5% CO2 for 24 hours.
The cells were then gently washed with 50 uL-100 uL cold PBS before proceeding to addition of lysis buffer. 30 uL-50 uL of room temperature lysis buffer with DNAse I (and optionally RNAsin) was added to each well. Cells were shaken/mixed thoroughly at room temperature for 5-10 minutes for lysis to take place and then 3 uL-5 uL of room temperature stop solution was added and wells were shaken/mixed again. After 2-5 minutes, the cell lysate plate was transferred to ice for RT-qPCR reaction setup. The lysates could also be frozen at −80° C. for later use.
In some cases, a direct lysis buffer was used. An appropriate volume of 3× lysis buffer (10 mM Tris, 150 mM NaCl, 1.5%-2.5% Igepal and 0.1-1 U/uL RNAsin, pH 7.4) was directly added to either K562 or A673 cells in media and mixed by pipetting 3 times. The plates were then incubated at room temperature with shaking/rocking for 20-50 minutes to allow for lysis to take place. After this time, the cell lysate plate was transferred to ice to set up for the RT-qPCR reactions. The lysates could also be frozen at −80° C. for later use. […]

SMN2 CJ mRNA = experiment: Gene panel canonical junction qPCR assay, SMN2; details: decrease in CJ mRNA levels, gene panel; read-out: SMN2 IC50
Method: as §1

[1] = decrease in CJ mRNA (50% response), read-out: HTT CJ AC50
[2] = increase in AJ mRNA (50% response), read-out: HTT AJ AC50

Row | Structure (SMILES) | IC50 (Target C CJ mRNA) [nM] | IC50 (HTT CJ mRNA) [nM] | AC50 (HTT mRNA; [1]) [nM] | AC50 (HTT mRNA; [2]) [nM] | IC50 (SMN2 CJ mRNA) [nM]
1 | Cc1cn2cc(-c3ccc4c(=O)n(C5CCNCC5)ncc4c3)cc(C(F)(F)F)c2n1 [Compound 262] | 1000 to 10000 | 1000 to 10000 | 1000 to 10000 | 1000 to 10000 | < 100
2 | O=c1c2ccc(-c3cn[nH]c3)cc2cnn1C1CCNCC1 [Compound 261] | > 10000 | > 10000 | > 10000 | > 10000 | 1000 to 10000
3 | Cc1cc(-c2nc3ccc(N(C)C4CCN(C)CC4)cc3c(=O)[nH]2)cc2cn(C)nc12 [Compound 239, 2-(2,7-dimethyl-2H-indazol-5-yl)-6-(methyl(1-methylpiperidin-4-yl)amino)quinazolin-4(3H)-one] | > 10000 | > 10000 | > 10000 | > 10000 | 1000 to 10000
4 | CN1CCC(n2cnc3cc(-c4cn[nH]c4)ccc3c2=O)CC1 [Compound 299] | > 10000 | > 10000 | > 10000 | > 10000 | > 10000
5 | Cc1cn2nc(-c3ccc4c(=O)n(C5CCNCC5)cnc4c3)cc(C)c2n1 [Compound 181] | 100 to 1000 | 100 to 1000 | 100 to 1000 | 100 to 1000 | < 100
6 | O=c1c2ccc(-c3cn[nH]c3)cc2ncn1C1CCNCC1 [Compound 284] | > 10000 | > 10000 | > 10000 | > 10000 | 1000 to 10000
7 | Cc1cn2nc(-c3ccc4c(=O)n(C5CCNC(C)(C)C5)ncc4c3)cc(C)c2n1 (stereo not shown) [Compound 279] | 100 to 1000 | 100 to 1000 | 100 to 1000 | 100 to 1000 | < 100
8 | Cc1cn2cc(-c3ccc4c(=O)n(C5CCNCC5)ncc4c3)cc(Cl)c2n1 [Compound 256] | > 10000 | 100 to 1000 | 100 to 1000 | 100 to 1000 | < 100
9 | Cc1nc2c(F)cc(-c3ccc4c(c3)CCN(C3CCNCC3)C4=O)cc2s1 [Compound 226] | > 10000 | > 10000 | > 10000 | > 10000 | 100 to 1000
10 | Cc1cn2cc(-c3ccc4c(=O)n(C5CCNC6(CC6)C5)cnc4c3)cc(F)c2n1 (stereo not shown) [Compound 236, 7-(8-fluoro-2-methylimidazo[1,2-a]pyridin-6-yl)-3-(4-azaspiro[2.5]octan-7-yl)quinazolin-4(3H)-one] | 100 to 1000 | 100 to 1000 | 100 to 1000 | 100 to 1000 | < 100
11 | Cc1cn2cc(-c3ccc4nc(NC5CCNCC5)[nH]c(=O)c4c3)cc(F)c2n1 [Compound 238] | > 10000 | > 10000 | > 10000 | > 10000 | > 10000
12 | Cc1cn2nc(-c3ccc4c(=O)n(C5CCCNCC5)ncc4c3)cc(C)c2n1 (stereo not shown) [Compound 283, 2-(azepan-4-yl)-6-{2,8-dimethylimidazo[1,2-b]pyridazin-6-yl}phthalazin-1-one] | 100 to 1000 | 100 to 1000 | 100 to 1000 | 100 to 1000 | < 100
13 | Cc1cn2cc(-c3ccc4c(c3)CCN(C3CCNCC3)C4=O)ncc2n1 [Compound 224] | > 10000 | > 10000 | > 10000 | > 10000 | 100 to 1000
14 | Cc1cn2nc(-c3ccc4c(=O)n(C5CCNC6(CC6)C5)ncc4c3)cc(C)c2n1 (stereo not shown) [Compound 274] | < 100 | < 100 | < 100 | < 100 | < 100
15 | Cc1nc2c(F)cc(-c3ccc4c(=O)n(C5CCN(C)CC5)cnc4c3)cc2o1 [Compound 300] | 1000 to 10000 | 100 to 1000 | 100 to 1000 | 1000 to 10000 | < 100
16 | Cc1cn2cc(-n3cnc4cc(N5CCNCC5)ccc4c3=O)cc(F)c2n1 [Compound 228, 3-(8-fluoro-2-methylimidazo[1,2-a]pyridin-6-yl)-7-(piperazin-1-yl)quinazolin-4(3H)-one] | 100 to 1000 | 100 to 1000 | 100 to 1000 | 100 to 1000 | 100 to 1000
17 | Cc1cn2nc(-c3ccc4c(c3)CCN(C3CCN(C)CC3)C4=O)cc(C)c2n1 [Compound 268] | > 10000 | 1000 to 10000 | 1000 to 10000 | 1000 to 10000 | < 100
